Measurements from article PMC3766860, “Two Novel Tyrosinase Inhibitory Sesquiterpenes Induced by CuCl2 from a Marine-Derived Fungus Pestalotiopsis sp. Z233” (Marine Drugs, 2013).

Biological target: Mushroom tyrosinase
Assay: o-diphenolase assay of mushroom tyrosinase, L-DOPA substrate, DOPAchrome absorbance at […] nm
Assay type: biochemical

SMILES | IC50
CC(=O)OC[C@]12[C@H](OC(C)=O)[C@H](O)C[C@H](C)[C@]1(OC(C)=O)[C@@H](OC(C)=O)[C@@H](C(C)(C)O)C[C@H]2OC(=O)c1ccccc1 (relative stereo) [compound 1, 1β,5α,6α,14-tetraacetoxy-9α-benzoyloxy-7βH-eudesman-2β,11-diol] | 14.8 µM
CC(=O)O[C@@]12C[C@@H](C(C)(C)O)C[C@@H](OC(=O)c3ccccc3)[C@@]1(CO)[C@H](O)[C@H](O)C[C@@]2(C)OC(C)=O (relative stereo) [compound 2, 4α,5α-diacetoxy-9α-benzoyloxy-7βH-eudesman-1β,2β,11,14-tetraol] | 22.3 µM
